Assay [1] has as its system CMRF44Ab. Briefly: ELISA binding of peptide phage clones to CMRF44Ab. The conditions noted are these: 12-mer phage libraries, confirmed by FACS blocking of CMRF44Ab binding to cell surface. As for the experimental part:
(§1) Peptide mimics were isolated from a phage display library using a library purchased from New England Biolabs called the PhD-12 Phage Display Peptide Library Kit (Cat No. #E8110S). The PhD-12 Phage Display Peptide Library Kit is based on a combinatorial library of random peptide 12-mers fused to a minor coat protein (pIII) of M13 phage. […] The library consists of ˜2.7×10^9 electroporated sequences, amplified once to yield ˜55 copies of each sequence in 10 μl of the supplied phage. The library is usually panned 3-4 times on the subject of study (usually antibody, but can use receptors, ligands etc.) with increasing stringency of washing at each step followed by analysis of individual clones for a consensus sequence binding to the test subject.
(§2) The consensus sequence of any peptides isolated from the library were be determined according to methods known to a person skilled in the art. ELISAs were then used to determine the binding of individual peptide phage clones or synthetic peptides (with or without repeats of the consensus sequence) to the original target (FIG. 1). Competitive binding assays were also used and analysed by FACS to determine true binding of the peptide sequences to the binding site of the target compared with the “natural” ligand or epitope (FIG. 2). Sequence analysis of the consensus sequence can determine what type of ligand is binding to the target or could give a true epitope, which may be used for database searches to find possible full-length sequences.
A consensus peptide sequence was identified for peptides which bind to CMRF44Ab from the 12-mer libraries using ELISA. Subsequent FACS analysis of phage peptide blocking of binding of CMRF44Ab to the cell surface also confirmed the peptide sequence. The peptide sequence appeared to be constrained to the N-terminus and the best sequence was AQKYQ (SEQ ID NO: 2) with apparent strong conservation at 1st, 3rd and 5th residues. A family of sequences were also identified and included ALKYQ (SEQ ID NO: 4), ALKEQ (SEQ ID NO: 5) and APKQQ (SEQ ID NO: 3). Further repeat panning of PhD-7 library was carried out to confirm the peptide sequence and identify other possible CMRF44 peptide antigen mimic sequences. […] Also, 3 rounds of repeat panning was carried out on combined 7-mer and 12-mer libraries (pooled together) with acid elution. Several clones sequences as well as pool of 3 round eluate. Results for CMRF-44 show an enrichment of the clone: ALKYQTGMPQSM (SEQ ID NO: 6) in both individual clones and the main strongest sequence in the pooled 3rd round eluate (FIG. 4).
A general note: An ELISA detects its analyte on a solid surface through an enzyme-linked reagent.

Assay [2] relates to CMRF44Ab. In words: Repeat panning of combined 7-mer and 12-mer phage peptide libraries on CMRF44Ab, sequencing of 3rd round clones and pooled eluate. In kind it is binding. The conditions noted are these: 3 rounds, combined 7-mer and 12-mer libraries, acid elution; individual clones and pooled 3rd round eluate (FIG. 4).
From the text: FIG. 4 is a graphical representation of sequence results of 3rd round combined 7 and 12-mer phage peptide library panning (CMRF44Ab).
as §1
A consensus peptide sequence was identified for peptides which bind to CMRF44Ab from the 12-mer libraries using ELISA. Subsequent FACS analysis of phage peptide blocking of binding of CMRF44Ab to the cell surface also confirmed the peptide sequence. The peptide sequence appeared to be constrained to the N-terminus and the best sequence was AQKYQ (SEQ ID NO: 2) with apparent strong conservation at 1st, 3rd and 5th residues. […]

Assay [3] concerns CMRF44Ab. In words: FACS competitive binding: peptide blocking of CMRF44Ab binding to natural antigen on KM-H2 cells. In kind it is cell-based. The settings on record: 5-mer peptide alone, KM-H2 cells (FIG. 22).
From the text: (§3) FIG. 22 is a graphical representation of FACS data showing binding of CMRF44Ab and scFv binding to KM-H2 cells and blocking of binding to natural antigen by competition with peptide mimic.
as §2

In another assay the test system is CMRF44 scFv. In words: FACS competitive binding: peptide blocking of CMRF44 scFv binding to natural antigen on KM-H2 cells. In kind it is cell-based. The conditions noted are these: 5-mer peptide alone, KM-H2 cells (FIG. 22).
From the text: as §3, §2

As to ALKEQ, the “consensus peptide sequence binding to CMRF44Ab” value in the assay with CMRF44Ab [1] is listed as “identified”.
Same read-out and setting: the result for ALKYQ reads “identified”.
For the substance “ALKYQTGMPQSM [12-mer phage display peptide clone]”, the “enrichment of clone in panning” value in the assay on CMRF44Ab [2] is “enrichment”.
In the case of APKQQ, the “consensus peptide sequence binding to CMRF44Ab” value in the assay with CMRF44Ab [1] is on record as “identified”.
For AQKYQ, the “blocking of CMRF44Ab” value in the assay on CMRF44Ab [3] is given as “blocking”. Besides, in the assay with CMRF44Ab [1], the “consensus peptide sequence binding to CMRF44Ab” value is “best sequence”. The “blocking of the engineered CMRF44 scFv” value in the assay with CMRF44 scFv was “blocking”.

The record behind these values is patent publication US8895698B2, “Binding partners of antibodies specific for dendritic cell antigens” (The Corporation of the Trustees of the Order of the Sisters …, priority 2004, dated 2014).
